Read-outs that look alike come from different tables or passages of the source.
Columns and labels:
Assay in all cases: microbe, parasite or virus in culture
Assay type in all cases: cell-based, Hepatitis C virus (HCV)
Conditions in all cases: Replicon Assay A
HCV replicon 1A = system: HCV replicon 1A
Outline: (§1)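 HCV replicon RNA levels were quantified by TaqMan RT-PCR after 3-day compound exposure (0.5% DMSO, 5% FBS). Cyclophilin RNA, co-amplified in the same reaction, served as endogenous control; Ct values were converted to RNA amounts using linear regression standard curves.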

HCV replicon 2B = system: HCV replicon 2B
Outline: as §1

HCV replicon 1AY93H = system: HCV replicon 1AY93H
Outline: as §1

[1] = read-out: 1A Y93H IC50, replicon 1AY93H
[2] = read-out: 2B IC50, HCV replicon 2B
[3] = read-out: 1A Y93H IC50, HCV replicon 1A Y93H
[4] = Hepatitis C virus, read-out: 2B IC50 (nM), replicon 2B
[5] = Hepatitis C virus, read-out: 1A Y93H IC50 (nM), replicon 1AY93H

Row | Compound | IC50 (HCV replicon 1A; replicon 1A) [nM] | IC50 (HCV replicon 2B; read-out: 2B IC50, replicon 2B) [nM] | IC50 (HCV replicon 1AY93H; [1]) [nM] | IC50 (HCV replicon 1A; HCV replicon 1A) [nM] | other results
1 | COC(=O)NC(C(=O)N1CCC[C@H]1c1ncc(-c2ccc3c(c2)cc2n3C(c3ccc(C(C)C)s3)Oc3cc(-c4cnc([C@@H]5CCCN5C(=O)[C@@H](NC(=O)OC)C(C)C)[nH]4)cc(F)c3-2)[nH]1)C1C[C@@H](C)O[C@@H](C)C1 (single isomer, unassigned) [Compound 235] | 0.0013 | 10.2 | 3.87 | – | –
2 | COC(=O)NC(C(=O)N1CCC[C@H]1c1ncc(-c2ccc3c(c2)cc2n3C(c3ccc(C4CC4)s3)Oc3cc(-c4cnc([C@@H]5C[C@H]6C[C@H]6N5C(=O)[C@@H](NC(=O)OC)C(C)C)[nH]4)cc(F)c3-2)[nH]1)C1C[C@@H](C)O[C@@H](C)C1 (single isomer, unassigned) [Compound 537] | – | – | – | 0.00398 | IC50 (HCV replicon 2B; [2]): 1.1 nM; IC50 (HCV replicon 1AY93H; [3]): 0.114 nM
3 | COC(=O)N[C@H](C(=O)N1CCC[C@H]1c1ncc(-c2cc(F)c3c(c2)OC(c2cc(C)sc2C)n2c-3cc3cc(-c4cnc([C@@H]5CCCN5C(=O)[C@@H](NC(=O)OC)C(C)C)[nH]4)ccc32)[nH]1)C(C)C (single isomer, unassigned) [Compound 319] | – | – | – | – | IC50 (HCV replicon 1A; Hepatitis C virus, replicon 1A): 0.001 nM; IC50 (HCV replicon 2B; [4]): 8.06 nM; IC50 (HCV replicon 1AY93H; [5]): 9.38 nM
4 | CCc1ccc(C2Oc3cc(-c4cnc([C@@H]5CCCN5C(=O)C(NC(=O)OC)C5CCOC(C)(C)C5)[nH]4)cc(F)c3-c3cc4cc(-c5cnc([C@@H]6CCCN6C(=O)[C@@H](NC(=O)OC)C(C)C)[nH]5)ccc4n32)s1 (single isomer, unassigned) [Compound 160] | 0.114 | 19.1 | 24.9 | – | –
5 | COC(=O)NC(C(=O)N1CCC[C@H]1c1ncc(-c2cc(F)c3c(c2)OC(c2ccc(C4CC4)s2)n2c-3cc3cc(-c4cnc([C@@H]5CCCN5C(=O)[C@@H](NC(=O)OC)C(C)C)[nH]4)ccc32)[nH]1)C1CCOC(C)(C)C1 (single isomer, unassigned) [Compound 212] | 0.0681 | 8.59 | 6.07 | – | –
6 | COC(=O)N[C@H](C(=O)N1CCC[C@H]1c1ncc(-c2ccc3c(c2)OC(c2cc4ccccc4s2)n2c-3cc3cc(-c4cnc([C@@H]5C[C@@H](F)CN5C(=O)[C@@H](NC(=O)OC)C5CCOCC5)[nH]4)ccc32)[nH]1)C(C)C (single isomer, unassigned) [Compound 628] | – | – | – | 0.00314 | IC50 (HCV replicon 2B; [2]): 0.922 nM; IC50 (HCV replicon 1AY93H; [3]): 0.357 nM
7 | COC(=O)N[C@H](C(=O)N1CCC[C@H]1c1ncc(-c2cc(F)c3c(c2)OC(c2cc4c(s2)C(C)(C)CC4)n2c-3cc3cc(-c4cnc([C@@H]5CCCN5C(=O)[C@@H](NC(=O)OC)C(C)C)[nH]4)ccc32)[nH]1)C(C)C (single isomer, unassigned) [Compound 392] | 0.0038 | – | – | – | IC50 (HCV replicon 2B; [4]): 0.373 nM; IC50 (HCV replicon 1AY93H; [5]): 0.0514 nM
8 | COC(=O)NC(C(=O)N1CCCC1c1ncc(-c2cc(F)c3c(c2)OC(c2ccc(CC(C)(C)OC)s2)n2c-3cc3cc(-c4cnc(C5CCCN5C(=O)C(NC(=O)OC)C5CCOC(C)(C)C5)[nH]4)ccc32)[nH]1)C(C)C (single isomer, unassigned) [Compound 850] | – | – | – | 0.0028 | IC50 (HCV replicon 2B; HCV replicon 2B, read-out: 2B IC50): 0.375 nM; IC50 (HCV replicon 1AY93H; HCV replicon 1A Y93H, read-out: 1A Y93H IC50): 0.855 nM
9 | COC(=O)N[C@H](C(=O)N1CCC[C@H]1c1ncc(-c2ccc3c(c2)OC(c2ccc(C4CC4)s2)n2c-3cc3cc(-c4cnc([C@@H]5CCCN5C(=O)[C@@H](NC(=O)OC)C5CCOCC5)[nH]4)ccc32)[nH]1)C(C)C (single isomer, unassigned) [Compound 334] | – | 0.0768 | 0.159 | – | IC50 (HCV replicon 1A; Hepatitis C virus, replicon 1A): 0.0024 nM
10 | COC(=O)N[C@H](C(=O)N1CCC[C@H]1c1ncc(-c2cc(F)c3c(c2)OC(c2cc4c(s2)CCCO4)n2c-3cc3cc(-c4cnc([C@@H]5CCCN5C(=O)[C@@H](NC(=O)OC)C5CCOC(C)(C)C5)[nH]4)ccc32)[nH]1)C(C)C (single isomer, unassigned) [Compound 411] | – | – | – | 0.001 | IC50 (HCV replicon 2B; [2]): 0.2 nM; IC50 (HCV replicon 1AY93H; [3]): 0.78 nM
11 | COC(=O)NC(C(=O)N1CCC[C@H]1c1ncc(-c2ccc3c(c2)cc2n3C(c3cc4nccnc4s3)Oc3cc(-c4cnc([C@@H]5CCCN5C(=O)[C@@H](NC(=O)OC)C(C)C)[nH]4)cc(F)c3-2)[nH]1)C1C[C@@H](C)O[C@@H](C)C1 (single isomer, unassigned) [Compound 371] | – | 0.0627 | 0.553 | – | IC50 (HCV replicon 1A; Hepatitis C virus, replicon 1A): 0.0042 nM
12 | COC(=O)N[C@@H](Cc1ccccc1)C(=O)N1CCC[C@H]1c1ncc(-c2ccc3c(c2)OC(c2ccc(-c4ccc(NC(=O)CCCC[C@@H]5SC[C@@H]6NC(=O)N[C@@H]65)cc4)s2)n2c-3cc3cc(-c4cnc([C@@H]5CCCN5C(=O)[C@H](Cc5ccccc5)NC(=O)OC)[nH]4)ccc32)[nH]1 (single isomer, unassigned) [Compound 385] | 0.109 | 7.21 | 3.11 | – | –

— US20160257697A1, “THIOPHENE-SUBSTITUTED TETRACYCLIC COMPOUNDS AND METHODS OFUSE THEREOF FOR THE TREATMENT OF VIRAL DISEASES” (priority 2013, published 2016)
